Patent US7449312B2, “Kit for conducting a polymerase chain reaction” (The Secretary of State for Defense in Her Britannic …, priority 2001, dated 2008)
Read-outs that look alike come from different tables or passages of the source.

Assays:
Taq DNA polymerase = Taq DNA polymerase (Thermus aquaticus, UniProt P19821); details: for suppression of PCR: results not shown
Procedure: Using Taq DNA polymerase, a standard 500 bp lambda template PCR using the following reagents, was conducted in the presence of differing quantities of the inorganic pyrorphosphate, tetrasodium pyrophosphate decahydrate (PPi).
1× Reaction Buffer: 10 mM Tris. pH 8.0, 50 mM KCl.
(§1) PCR conditions for the assay were as follows:
The PPi was added such that the final concentration in the reaction mixture was 0, 1, 2, 3, 4 and 5 mM. In this Figure, the lanes correspond to the following concentrations of PPi
In order to eliminate this possibility, the procedure of Example 1 with 3 mM PPi was repeated in the presence of various concentrations of magnesium ions.
The example was repeated using concentrations of PPi of less than 1 mM.

[1] = test system: thermostable DNA polymerases (Taq, Tbr, Tth, TspNH, Pfu, 9°N exo-, VENT, Accurase); assay: PCR with different thermostable DNA polymerases, with PPi and Sac PPase; type: biochemical; details: FIGS. 7a, 7b, 8b
Description: A variety of thermostable DNA polymerases were employed in the method of the invention and some comparative assays. These included several non-proofreading Thermus sp. DNA polymerases, proof-reading hyperthermophilic archael DNA polymerases and mixes of non-proofreading and proofreading DNA polymerases.
They were all tested using the 500 bp lambda PCR as described in Example 1 (FIGS. 7a and 7b), and several using the Angiotensin assay as described in Example 4 (FIGS. 8a and 8b).

[2] = test system: 321 bp fragment of the human angiotensin gene; assay: Angiotensin PCR assay requiring a HotStart reaction; type: biochemical; details: up to two hours at ambient temperature; 0.2 u Sac PPase, 3 mM PPi
Description: The method of the invention was then applied to an assay system that requires a “HotStart” reaction in order to generate a PCR product of the correct size.
The assay is based around the amplification of a 321 bp fragment of the human angiotensin gene. It has been recognised that the assay will only generate the correct amplification product in the presence of betaine (EP-A-0962526—see in particular Example 8).
Without betaine a HotStart DNA polymerase generates few non-specific amplification products or no products at all whereas a non-HotStart DNA polymerase PCR generates a large number of non-specific amplification products.
The PCR conditions used in the Angiotensin assay can be summarised as follows.
as §1
The reaction was conducted using a PE9700 Instrument in the presence of 3 mM PPi and 0.2 u PPase as described in Example 3.
The effect of leaving a PCR mixture containing 0.2 u Sac PPase and 3 mM PPi at room temperature 20° C. for various lengths of time prior to conducting the Angiotensin assay, was investigated. Although Sac PPase is a thermostable enzyme, it was possible that there would be a small level of enzyme activity at ambient temperatures. This might lead to insufficient PPi in the reaction to inhibit/stop the DNA polymerase leading to primer extension and lack of “HotStart” functionality. […]

[3] = 500 bp lambda PCR in the presence of PPi and PPase; type: biochemical; details: 0.2 u Sac PPase; 95° C. for 5 mins
Description: The 500 bp lambda PCR of Example 1 was repeated, but this time, 0.2 u of Sulfolobus acidocaldarius PPase (Sac PPase) was included in reactions containing pyrophosphate (PPi).
The results are shown in FIG. 3 where the lanes represent the following reactions: […]

Sequence of Taq DNA polymerase (P19821 whole entry): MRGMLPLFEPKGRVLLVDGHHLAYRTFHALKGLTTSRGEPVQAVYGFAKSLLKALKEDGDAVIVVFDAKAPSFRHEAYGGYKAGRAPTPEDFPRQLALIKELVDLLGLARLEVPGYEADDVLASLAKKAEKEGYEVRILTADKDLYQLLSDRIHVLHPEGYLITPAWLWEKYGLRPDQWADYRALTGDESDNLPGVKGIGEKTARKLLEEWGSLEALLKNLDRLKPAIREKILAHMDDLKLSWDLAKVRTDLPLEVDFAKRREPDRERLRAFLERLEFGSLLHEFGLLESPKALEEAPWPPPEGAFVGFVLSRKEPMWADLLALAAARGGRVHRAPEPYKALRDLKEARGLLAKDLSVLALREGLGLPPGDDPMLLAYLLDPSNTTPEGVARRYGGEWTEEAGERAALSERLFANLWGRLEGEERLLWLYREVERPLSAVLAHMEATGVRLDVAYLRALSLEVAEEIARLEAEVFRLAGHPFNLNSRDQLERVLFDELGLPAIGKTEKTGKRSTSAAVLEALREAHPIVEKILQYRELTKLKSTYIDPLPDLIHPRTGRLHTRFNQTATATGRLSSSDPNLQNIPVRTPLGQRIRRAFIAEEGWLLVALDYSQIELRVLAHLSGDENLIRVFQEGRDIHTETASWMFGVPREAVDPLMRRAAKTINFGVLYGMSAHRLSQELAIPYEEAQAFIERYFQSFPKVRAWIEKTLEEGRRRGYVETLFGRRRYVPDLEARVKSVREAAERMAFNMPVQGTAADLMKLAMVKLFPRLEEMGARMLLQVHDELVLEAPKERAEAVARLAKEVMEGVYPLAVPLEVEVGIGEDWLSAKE

Molecule | suppression of PCR (Taq DNA polymerase; 0.4 mM PPi) | suppression of PCR (Taq DNA polymerase; 0.6 mM PPi) | PCR with increasing magnesium ion concentration (Taq DNA polymerase; 3 mM PPi, Mg++ up to 10 mM final concentration, FIG. 2) | PCR product formation in presence of PPi (Taq DNA polymerase; PPi 1, 2, 3, 4 and 5 mM final, 1.5 mM MgCl2, FIG. 1) | inhibition of DNA polymerases by PPi ([1]; 3 mM PPi, no PPase) | reversal of PPi inhibition by PPase ([1]; 3 mM PPi and 0.2u Sac PPase) | ambient temperature digestion of PPi by PPase [2] | destruction of pyrophosphate so that the PCR reaction could proceed [3]
O.O.O.O.O.O.O.O.O.O.O=P([O-])([O-])OP(=O)([O-])[O-].[Na+].[Na+].[Na+].[Na+] [PPi, tetrasodium pyrophosphate decahydrate] | did not completely suppress the PCR | no PCR occurred | does not allow PCR to occur | no PCR product was produced | inhibited | – | – | –
Sac PPase: thermostable pyrophosphatase of Sulfolobus acidocaldarius, obtainable from GeneSys Limited (protein, UniProt P50308 1-173, looked up) Inorganic pyrophosphatase: MKLSPGKNAPDVVNVLVEIPQGSNIKYEYDDEEGVIKVDRVLYTSMNYPFNYGFIPGTLEEDGDPLDVLVITNYQLYPGSVIEVRPIGILYMKDEEGEDAKIVAVPKDKTDPSFSNIKDINDLPQATKNKIVHFFEHYKELEPGKYVKISGWGSATEAKNRIQLAIKRVSGGQ | – | – | – | – | – | inhibition could be overcome | insufficient ambient temperature digestion of the PPi | sufficient to destroy the pyrophosphate
